Measurements: patent US9808434B2, “Compound for treating cancer and diabetes” (CITY OF HOPE, priority 2011, dated 2017)

How the values were obtained:
[1] = system: SKOV3, MADH2744 and A2780 DPPr cells; test: Ovarian cancer cell viability, cellular acid phosphatase activity; type: cell-based, human; conditions: 48 hours, 0-10 μM
Description: SKOV3 is a cisplatin resistant human ovarian cancer cell line. Human ovarian cancer cells (SKOV3, MADH2744, and […]) were incubated with COH-SR4 at various concentrations (0˜10 μM) or without COH-SR4 for 48 hours. Cells Viabilities were determined by measuring cellular acid phosphatase activities. Data were represented as a ratio to vehicle (DMSO) control.

U251 = test: Glioma ATP viability assay, U251; type: cell-based; conditions: Homo sapiens, U-251, 72 h
Description: (§1) Cells of each cell line (U251, U87, PBT-017, PBT018, PBT003 and PBT028) were treated with various concentrations (0˜100 μM) of COH-SR4 for 72 hours. Cell viabilities were determined by ATP viability assays. Data were represented as a ratio to vehicle (DMSO) control, and plotted as mean±SEM (n=12) obtained from 2˜3 experiments (FIG. 34A).
as §1, with “(U87, U251,” for “(U251, U87, PBT-017, PBT018,”, “PVT-017)” for “PBT028)”, “2-3” for “2˜3”, “34B).” for “34A).”
Cells of each cell line were treated with various concentrations (0˜100 μM) of COH-SR4 or various concentrations (0˜1000 μM) of TMZ for 72 hours. Cell viabilities were determined by ATP viability assays. Data were represented as a ratio to untreated cells as control, and plotted as mean±SEM (n=12) obtained from 2˜3 experiments (FIGS. 43A-B).

HIF-1α = HIF-1α protein expression in U251, immunoblotting; type: cell-based; conditions: U251, 1-10 μM
Description: U251 cells were incubated with various concentrations of COH-SR4 (1˜10 μM). Whole-cell lysates were analyzed by immunoblotting with antibodies against HIF-1α. GAPDH was used as a loading control.

SK-Mel-2 = test: Colony formation assay, SK-Mel-2; type: cell-based, human; conditions: 5 μM
Description: Cell survival was evaluated using a standard colony-forming assay. In total, 1×10^5 cells/mL were incubated with COH-SR4 (1.5 μM or 5 μM) or elesclomol (5 μM) for 24 h, and aliquots of 50 or 100 μL were added to 60 mm size petri dishes, containing 4 mL culture medium. After 7 or 10 days, adherent colonies were fixed, stained with 0.5% methylene blue for 30 min and colonies were counted using the Innotech Alpha Imager HP (91).

SK-MEL2 = test: Intracellular ATP production, luminescence kit; type: cell-based, human; conditions: 5 μM, less than 1 h
Description: (§2) ATP production from cells treated with test compounds were measured using the Luminescent ATP Detection Assay Kit. AMP, ATP and ADP were measured by UV-HPLC.
One of the consequences of mitochondria uncoupling is decrease intracellular ATP production, leading to increased AMP:ATP ratio and triggering activation of the energy-sensitive enzyme AMPK. It has been previously shown that COH-SR4 indirectly activates AMPK in a time- and dose-dependent manner in both HepG2 cells and 3T3-adipocytes. […] In melanomas, mutation rates for BRAF NRAS and LKB1 are 50-70%, 5-30%, and 10%, respectively. […] AMPK activation may cause a cell cycle arrest associated with stabilization of p53 and the cyclin-dependent kinase inhibitors p21^WAF1 and p27^CIP1.

AMPK = AMPK activation in human melanoma cell lines; type: cell-based; conditions: regardless of BRAF, NRAS and LKB1 mutation
Description: Cell or tissue proteins were extracted with cell lysis buffer (Cell Signaling Technology) and protein concentration was determined using the DC Protein Assay kit (Bio-Rad, Hercules, Calif., USA). Equal amount of proteins (˜40 μg) were loaded onto 4-15% Criterion TGX gels (Bio-Rad, Hercules, Calif.), resolved by SDS-PAGE electrophoresis, and then transferred onto nitrocellulose membranes for immunoblotting. Membranes were blocked with 5% skimmed milk in Tris-buffered saline containing 0.05% Tween 20 before incubation overnight at 4° C. with desired primary antibodies. Immuno-reactive proteins were visualized by peroxidase-labeled secondary antibodies and ECL system (Western Lightning Chemiluminescence Reagent, Perkin-Elmer, Mass., USA). Equal loading of proteins was confirmed by stripping and re-probing the membranes with either β-actin or GAPDH antibodies. Band intensities were quantified using a densitometer (Quantity One, Bio-Rad, Hercules, Calif.).
One of the consequences of mitochondria uncoupling is decrease intracellular ATP production, leading to increased AMP:ATP ratio and triggering activation of the energy-sensitive enzyme AMPK. It has been previously shown that COH-SR4 indirectly activates AMPK in a time- and dose-dependent manner in both HepG2 cells and 3T3-adipocytes. […] In melanomas, mutation rates for BRAF NRAS and LKB1 are 50-70%, 5-30%, and 10%, respectively. […]

AMPK, ACC = test: AMP:ATP ratio and AMPK/ACC phosphorylation in liver of db/db mice; type: in vivo, mouse; conditions: 5 weeks
Description: as §2
All animal experiments were carried out in accordance with the protocols approved by the Institutional Animal Care and Use Committee of the City of Hope. Nine-week old male C57BL/6J mice fed on high fat diet (HFD, 60% fat) and 10-week old db/db mice were given COH-SR4 (5 mg/kg B.W.) or vehicle (corn oil) via oral gavage every other day for six and five weeks, respectively. Oral glucose tolerance test was performed on animals after an overnight fast. All other metabolic parameters were measured at the end of study. Liver samples were stained with H&E and Oil Red O.
Total intracellular ATP production in cells treated with either 5 μM COH-SR4 or 5 μM FCCP was measured by bioluminescence assay and expressed as percentage of time-matched vehicle (DMSO) control (FIG. 84A). Intracellular AMP: ATP ratios increased in HepG2 liver carcinoma cells following 1 h treatment with either 5 μM COH-SR4 or 5 μM FCCP (FIG. 84B) and in liver of db/db mice treated with COH-SR4 (5 mg/kg B.W.) for 5 weeks (FIG. 84C). All data represented are mean±SEM, *P<0.05.
Treatment with the AMPK inhibitor Compound C (20 μM) diminished AMPK activation and ACC phosphorylation by either uncoupler COH-SR4 or FCCP (FIG. 84F).

O=C(Nc1cc(Cl)cc(Cl)c1)Nc1cc(Cl)cc(Cl)c1 [COH-SR4, 1,3-bis(3,5-dichlorophenyl) urea]
cytotoxicity on regular and cisplatin-resistant ovarian cancer cells [1]: dose-dependent cytotoxicity and anti-proliferative effects | IC50 (U251; Table 1): 2100 nM | IC50 (U251; Table 2): 2000 nM | HIF-1α protein expression (HIF-1α): inhibited HIF-1α protein expression | colony formation (SK-Mel-2): 48±6% | intracellular ATP production (SK-MEL2): rapid decline | activation of AMPK (AMPK): dose- and time-dependent activation of AMPK | intracellular AMP:ATP ratios in liver (AMPK, ACC; 5 mg/kg B.W.): increased | AMPK and ACC phosphorylations in liver (AMPK, ACC): Increased AMPK and ACC phosphorylations
